Test results as given in PubChem BioAssay AID330 (DTP/NCI, 2004).
Where “and” joins values, the source holds several entries; their conditions need not be identical. Identical values can stand only once. Toxic doses and inconclusive results are not listed. How the source made its calls: active means survival T/C of 150% or more; inactive means T/C below 125% in these data.

Tested on: P388 leukemia ip, CD2F1 mice, survival T/C
Assay: NCI In Vivo Anticancer Drug Screen. Data for tumor model P388 Leukemia (intraperitoneal) in CD2F1 (CDF1) mice
Conditions: endpoint: median survival time, higher = longer survival
Summary of the method: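 Mice carrying the transplanted tumor received test compound or vehicle. Survival was recorded in each group, and the value is the treated-group measurement divided by that of the vehicle-treated control group.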

[1] = dose: 50.0 mg/kg/injection, schedule: Q04DX003 (ip), vehicle: saline
[2] = dose: 100.0 mg/kg/injection, schedule: Q04DX003 (ip), vehicle: saline
[3] = dose: 200.0 mg/kg/injection, schedule: Q04DX003 (ip), vehicle: saline
[4] = dose: 25.0 mg/kg/injection, schedule: Q01DX009 (ip), vehicle: other
[5] = dose: 50.0 mg/kg/injection, schedule: Q01DX005 (ip), vehicle: saline
[6] = dose: 100.0 mg/kg/injection, schedule: Q04DX003 (ip), vehicle: saline with Tween-80
[7] = dose: 200.0 mg/kg/injection, schedule: Q04DX003 (ip), vehicle: saline with Tween-80
[8] = dose: 400.0 mg/kg/injection, schedule: Q04DX003 (ip), vehicle: saline with Tween-80
[9] = dose: 50.0 mg/kg/injection, schedule: Q01DX005 (ip), vehicle: saline with Tween-80
[10] = dose: 100.0 mg/kg/injection, schedule: Q01DX005 (ip), vehicle: saline with Tween-80
[11] = dose: 50.0 mg/kg/injection, schedule: Q01DX009 (ip), vehicle: saline with Tween-80
[12] = dose: 100.0 mg/kg/injection, schedule: Q01DX009 (ip), vehicle: saline with Tween-80
[13] = dose: 60.0 mg/kg/injection, schedule: Q01DX005 (ip), vehicle: Klucel (hydroxypropylcellulose) (HPC)
[14] = dose: 120.0 mg/kg/injection, schedule: Q01DX005 (ip), vehicle: Klucel (hydroxypropylcellulose) (HPC)
[15] = dose: 240.0 mg/kg/injection, schedule: Q01DX005 (ip), vehicle: Klucel (hydroxypropylcellulose) (HPC)

Measured: T/C

S=c1[nH]nc2nc3c4ccccc4c4ccccc4c3nn12
inactive: [1] 95 % of control | [2] 95 % of control | [3] 93 % of control

C=CCN(CC=C)c1cc(NN)nnc1Cl
inactive: [4] 102 % of control | dose: 50.0 mg/kg/injection, schedule: Q01DX009 (ip), vehicle: other 105 % of control

CN=C(NCCSCc1ccc2ccccc2n1)NCc1ccccc1
inactive: dose: 12.5 mg/kg/injection, schedule: Q01DX005 (ip), vehicle: saline 98 % of control | dose: 25.0 mg/kg/injection, schedule: Q01DX005 (ip), vehicle: saline 109 % of control | [5] 101 % of control

CCCCCCC(=O)/C=C/C=C/c1ccccc1
inactive: [6] 100 % of control | [7] 103 % of control | [8] 92 % of control

COc1cccc2c1C(=O)c1c(O)c3c(c(O)c1C2=O)CC(O)(C(=O)CBr)CC3OC(C)=O (configuration not stated)
inactive: dose: 1.56 mg/kg/injection, schedule: Q01DX009 (ip), vehicle: other 109 % of control | dose: 3.13 mg/kg/injection, schedule: Q01DX009 (ip), vehicle: other 103 % of control | dose: 6.25 mg/kg/injection, schedule: Q01DX009 (ip), vehicle: other 105 % of control | dose: 12.5 mg/kg/injection, schedule: Q01DX009 (ip), vehicle: other 113 % of control | [4] 109 % of control

CS/C(=C1/C(=O)N(c2ccccc2)N=C1C)N1CC1
inactive: dose: 6.25 mg/kg/injection, schedule: Q04DX003 (ip), vehicle: Klucel (hydroxypropylcellulose) (HPC) 99 % of control | dose: 12.5 mg/kg/injection, schedule: Q04DX003 (ip), vehicle: Klucel (hydroxypropylcellulose) (HPC) 100 % of control | dose: 25.0 mg/kg/injection, schedule: Q04DX003 (ip), vehicle: Klucel (hydroxypropylcellulose) (HPC) 102 % of control and 109 % of control | dose: 50.0 mg/kg/injection, schedule: Q04DX003 (ip), vehicle: Klucel (hydroxypropylcellulose) (HPC) 90 % of control

CCOc1cc2c(cc1C(C)c1cc(C(C)(C)C)c(O)c(C(C)(C)C)c1)OCO2 (configuration not stated)
inactive: [9] 100 % of control | [10] 91 % of control | dose: 200.0 mg/kg/injection, schedule: Q01DX005 (ip), vehicle: saline with Tween-80 88 % of control

COc1ccccc1-n1c(=S)n(-c2ccccc2C)c2nc3ccccc3nc1/c2=N\Nc1ccccn1
inactive: [9] 100 % of control | [10] 102 % of control

Nc1nc(Nc2ccccc2)nc(SCc2ccccc2)n1
inactive: dose: 25.0 mg/kg/injection, schedule: Q01DX009 (ip), vehicle: saline with Tween-80 99 % of control | [11] 90 % of control | [12] 88 % of control

Nc1nc(N)c2nc(Sc3ccc(Cl)cc3)c(=O)[nH]c2n1
inactive: [11] 97 % of control | [12] 91 % of control | dose: 200.0 mg/kg/injection, schedule: Q01DX009 (ip), vehicle: saline with Tween-80 105 % of control

O=C(Nc1ccc(N=Nc2ccccc2)cc1)SCCO
inactive: [9] 102 % of control | [10] 108 % of control

Clc1ccc2oc(N3CCOCC3)nc2c1
inactive: dose: 60.0 mg/kg/injection, schedule: Q01DX005 (ip), vehicle: saline with Tween-80 103 % of control | dose: 120.0 mg/kg/injection, schedule: Q01DX005 (ip), vehicle: saline with Tween-80 96 % of control | dose: 240.0 mg/kg/injection, schedule: Q01DX005 (ip), vehicle: saline with Tween-80 87 % of control

CC(=O)Nc1ccc(C(=O)c2ccccc2)cc1
inactive: dose: 25.0 mg/kg/injection, schedule: Q04DX003 (ip), vehicle: saline 102 % of control | [1] 103 % of control | [2] 100 % of control | [3] 103 % of control

[B-][N+]1(C)CC[N+]([B-])(C)CC1 (configuration not stated)
inactive: dose: 5.0 mg/kg/injection, schedule: Q01DX009 (ip), vehicle: saline with Tween-80 90 % of control | dose: 10.0 mg/kg/injection, schedule: Q01DX009 (ip), vehicle: saline with Tween-80 95 % of control | dose: 20.0 mg/kg/injection, schedule: Q01DX009 (ip), vehicle: saline with Tween-80 90 % of control

CCOC(=O)c1cnc(SCc2ccccc2)[nH]c1=O
inactive: [6] 100 % of control | [7] 90 % of control | [8] 100 % of control

CC(C)(C)n1nc(C2CC2)c(Br)c1NC(=O)c1ccc(Cl)cc1
inactive: dose: 30.0 mg/kg/injection, schedule: Q01DX005 (ip), vehicle: Klucel (hydroxypropylcellulose) (HPC) 109 % of control | [13] 96 % of control | [14] 101 % of control | [15] 98 % of control

N=c1oc(-c2ccccc2)cc2ccccc12
inactive: dose: 6.25 mg/kg/injection, schedule: Q01DX005 (ip), vehicle: Klucel (hydroxypropylcellulose) (HPC) 104 % of control | dose: 12.5 mg/kg/injection, schedule: Q01DX005 (ip), vehicle: Klucel (hydroxypropylcellulose) (HPC) 100 % of control | dose: 25.0 mg/kg/injection, schedule: Q01DX005 (ip), vehicle: Klucel (hydroxypropylcellulose) (HPC) 104 % of control

CC1/C=C/C=C/CC/C=C/C=C/C=C/C=C/C(OC2OC(C)C(O)C(N)C2O)CC2OC(CC(O)C(O)CCC(O)CC(O)CC(O)CC(=O)OC(C)C(C)C1O)CC(O)C2C(=O)O (configuration not stated)
inactive: dose: 6.25 mg/kg/injection, schedule: Q01DX005 (ip), vehicle: saline with Tween-80 95 % of control | dose: 9.5 mg/kg/injection, schedule: Q01DX009 (ip), vehicle: saline sonified 100 % of control | dose: 12.5 mg/kg/injection, schedule: Q01DX005 (ip), vehicle: saline with Tween-80 109 % of control | dose: 19.0 mg/kg/injection, schedule: Q01DX009 (ip), vehicle: saline sonified 95 % of control | dose: 25.0 mg/kg/injection, schedule: Q01DX005 (ip), vehicle: saline with Tween-80 104 % of control | dose: 38.0 mg/kg/injection, schedule: Q01DX009 (ip), vehicle: saline sonified 100 % of control | [9] 95 % of control

CCOC(=O)CC[Si](CC)(CC)CC
inactive: dose: 50.0 mg/kg/injection, schedule: Q01DX009 (ip), vehicle: saline 104 % of control | dose: 100.0 mg/kg/injection, schedule: Q01DX009 (ip), vehicle: saline 93 % of control | dose: 200.0 mg/kg/injection, schedule: Q01DX009 (ip), vehicle: saline 90 % of control

Nc1nnc2nc(CC(=O)/C=C/c3ccccc3)c(CC(=O)/C=C/c3ccccc3)nn12
inactive: [5] 98 % of control | dose: 100.0 mg/kg/injection, schedule: Q01DX005 (ip), vehicle: saline 97 % of control | dose: 200.0 mg/kg/injection, schedule: Q01DX005 (ip), vehicle: saline 104 % of control

N#Cc1c[nH]n2ccnc12
inactive: [13] 101 % of control | [14] 101 % of control | [15] 105 % of control

CC(=O)SC12CCCN1C(=O)C1CCCN1C2=O (configuration not stated)
inactive: dose: 100.0 mg/kg/injection, schedule: Q04DX002 (ip), vehicle: saline 100 % of control | dose: 200.0 mg/kg/injection, schedule: Q04DX002 (ip), vehicle: saline 111 % of control | dose: 400.0 mg/kg/injection, schedule: Q04DX002 (ip), vehicle: saline 117 % of control
